Patent US6019959A, “Oligomeric compounds that contain perfluoroalkyl, process for their production, and their use in NMR diagnosis” (Schering Aktiengesellschaft, priority 1998, dated 2000)
One block for each compound: values may come before it.

Columns and labels:
[1] = Determination of the T1-relaxivity with a Minispec pc 20 in human plasma; format: physicochemical; conditions: 0.47 T (20 MHz), 37° C., human plasma, normalized to one metal atom
Protocol: Determination of the T^1 -Relaxivity of Selected Compounds
The relaxivity of the following compounds was determined
with a Minispec pc 20 (20 MHz, 0.47 T) at 37° C. in human plasma
and compared to that of Gd-DTPA-polylysine and Magnevist^(R) as
comparison substances. Since the substances according to the
invention contain more than one metal atom, the relaxivity was
normalized to one metal atom for purposes of comparison.

[2] = T1-relaxivity of commercially available 1H-NMR contrast media; format: physicochemical; conditions: 39° C., 0.47 T
[3] = In-vivo comparison with an intravascular and an extracellular contrast medium in blocked kidneys (diffusibility); design: species or system rats; conditions: i.v., blocked renal vessels, compound 2 set at 100%
Protocol: As test animals, three 250 g male (Schering-SPF) rats were used. The renal vessels in the animals were blocked to prevent renal elimination and, assuming that fecal elimination is negligible, to obtain a measure of the diffusibility of the formulation according to the invention from the blood into the surrounding tissue. 0.5 ml (in each case 10 mmol/l) of the following contrast medium solution was intravenously administered per animal: a mixture consisting of 1 part each of the compound of Example 1g, named compound 1 below, of intravascular contrast medium Eu-DTPA-albumin, named compound 2 below and of extracellular contrast medium Dy-DTPA, named compound 3 below. Via a catheter in the common carotid artery, blood samples were taken at the following times: 15, 30, 45, 60, 90 seconds; 3, 5, 10, 15 minutes p.i. In the blood samples that were obtained, in each case the concentrations of gadolinium (Gd), europium (Eu) and dysprosium (Dy) were measured in parallel using atom emission spectrometry (ICP-AES). The proportion of the intravascular contrast medium compound 2 (Eu) that remains in the blood space was set at 100%. It was possible to compare the proportion of the formulation according to the invention of compound 1 (Gd) and compound 3 (Dy, extracellular comparison substance) that remained in the blood space by the different labeling in the same animal, and the proportion was set as a percentage of the concentration of compound 2.

[4] = Blood elimination kinetics after one-time intravenous administration; format: in vivo, rats; conditions: two-compartment model, n=3
Protocol: (§1) For this purpose, after one-time intravenous administration (via a caudal vein) of the substances (dose: ≈100 μmol of metal per kg of body weight), the substance concentration in the blood (based on the Gd or Dy content) was determined over a period of up to 120 minutes p.i. using ICP-AES. The pharmacokinetic parameters: distribution volume (Vss), total clearance (CLtot) and elimination half-life (tb) were calculated with a special computer program (TOPFIT 2.0; Thomae, Schering, Godecke), whereby a two-compartment distribution model was used as a basis.
The Gd and Dy contents in the blood were determined using ICP-AES.
as §1, with “metal” for “Gd or Dy”

[5] = Table 3, i.v. ≈100 μmol metal/kg
[6] = Table 4, i.v. ≈100 μmol metal/kg

Compound: 1,4,7-Tris{1,4,7-tris-(N-carboxylatomethyl)-10-[N-(4,7-diaza-3,6,9-trioxo)-nonane-2,9-diyl]-1,4,7,10-tetraazacyclododecane, Gd complex-10-(N-22F,22F,22F,21F,21F,20F,20F,19F,19F,18F,18F,17F,17F,16F,16F,15F,15F-heptadecafluoro-12-oxa-docosanoyl)-1,4,7,10-tetraazacyclododecane [14e)]
- R^1 (T^1-relaxivity) [1]: 19.3 L/mmol/s

Compound: 1,4,7-Tris{N-3,3,6-tris(carboxylatomethyl)-6-[N-3-aza-2,5-dioxo-pentane-1,5-diyl]-3,6,9-triazaundecane-1,11-dioic acid, Gd complex, monosodium salt}-10-2H,2H,4H,4H,5H,5H-3-oxa-perfluoro-tridecanoyl)-1,4,7,10-tetraazacyclododecane [8b)]
- R^1 (T^1-relaxivity) [1]: 20.6 L/mmol/s

Compound: 1,4,7-Tris{N-3,9-bis(carboxylatomethyl)-6-[N-3-aza-2,5-dioxo-pentane-1,5-diyl]-3,6,9-triazaundecane-1-carboxylato-11-acid, Gd complex, sodium salt}-10-[N-acetyl-(2-amino-N-ethyl-N-perfluorooctylsulfonyl)]-1,4,7,10-tetraazacyclododecane [18d)]
- R^1 (T^1-relaxivity) [1]: 23.0 L/mmol/s

Compound: 1,4,7-Tris{N-[3,9-bis(N-carboxylatomethyl)]-6-[N-(3-aza-2,5-dioxo-pentane)-1,5-diyl]-3,6,9-triazaundecane-1-carboxylato-11-acid, Gd complex, monosodium salt}-10-N-{undecanoyl-<11-amino-N-[acetyl-(2-amino-N-ethyl-N-perfluorooctyl-sulfonyl)]>}-1,4,7,10-tetraazacyclododecane [25f)]
- R^1 (T^1-relaxivity) [1]: 15.1 L/mmol/s

Compound: 1,4,7-Tris{N-hexanoyl-2,6-bis<amino-N-acetyl-2-[3,9-bis(N-carboxylato-methyl)-6-yl-3,6,9-triazaundecane-1-carboxylato-11-acid, Gd complex, monosodium salt]>}-10-[N-acetyl-(2-amino-N-ethyl-N-perfluorooctylsulfonyl)]-1,4,7,10- tetraazacyclododecane [26d)]
- R^1 (T^1-relaxivity) [1]: 13.0 L/mmol/s

Compound: 1,4,7-Tris{N-hexanoyl-2,6-bis<amino-N-acetyl-2-[aminopropanoyl-(2-yl)]-[1,4,7-tris(N-carboxylatomethyl)-1,4,7,10-tetraazacyclododecan-10-yl, Gd complex]>}-10-[N-acetyl-(2-amino-N-ethyl-N-perfluorooctylsulfonyl)]-1,4,7,10-tetraazacyclododecane [Example 27]
- R^1 (T^1-relaxivity) [1]: 16.1 L/mmol/s

Compound: C[NH2+]C[C@H](O)[C@@H](O)[C@H](O)[C@H](O)CO.O=C([O-])CN1CCN(CC(=O)[O-])CCN(CC(=O)[O-])CCN(CC(=O)[O-])CC1.[Gd+3] [Dotarem, meglumine salt of Gd-DOTA (Gadolinium(III)complex of 1,4,7,10-tetracarboxymethyl-1,4,7,10-tetraazacyclododecane)]
- T^1-relaxivity [2]: 3.5 to 4.9 mM⁻¹ s⁻¹

Compound: C[NH2+]C[C@H](O)[C@@H](O)[C@H](O)[C@H](O)CO.C[NH2+]C[C@H](O)[C@@H](O)[C@H](O)[C@H](O)CO.O=C([O-])CN(CCN(CC(=O)[O-])CC(=O)[O-])CCN(CC(=O)[O-])CC(=O)[O-].[Gd+3] [Magnevist, di--N-methylglucamine salt of the Gd-DTPA complex, reference compound]
- R^1 (T^1-relaxivity) [1]: 4.8 L/mmol/s
- T^1-relaxivity [2]: 3.5 to 4.9 mM⁻¹ s⁻¹

Compound: CNC(=O)CN(CCN(CCN(CC(=O)[O-])CC(=O)NC)CC(=O)[O-])CC(=O)[O-].[Gd+3] [Omniscan]
- T^1-relaxivity [2]: 3.5 to 4.9 mM⁻¹ s⁻¹

Compound: CC(O)CN1CCN(CC(=O)[O-])CCN(CC(=O)[O-])CCN(CC(=O)[O-])CC1.[Gd+3] (stereo not shown) [Pro Hance]
- T^1-relaxivity [2]: 3.5 to 4.9 mM⁻¹ s⁻¹

- Percentage of the dose that remains in the blood space ([3]; 30 seconds p.i.): 48%
- Percentage of the dose that remains in the blood space ([3]; 3 minutes p.i.): 25%
- Percentage of the dose that remains in the blood space ([3]; 10 minutes p.i.): 21%
- Distribution volume Vss (MEAN) [4, 5]: 0.17 Ukg
- Elimination half-life tβ (MEAN) [4, 5]: 20.7 min
- Total clearance CLtot (MEAN) [4, 5]: 6.75 mU (min*kg)
- tα (MEAN) [4, 5]: 2.07 min
- Distribution volume Vss (MEAN) [4, 6]: 0.17 Ukg
- Elimination half-life tβ (MEAN) [4, 6]: 18.5 min
- Total clearance CLtot (MEAN) [4, 6]: 6.90 mL·kg·min
- tα (MEAN) [4, 6]: 1.48 min
Compound: Dy-DTPA [reference compound]

Compound: Eu-DTPA-albumin [compound 2]
- Percentage of the dose that remains in the blood space ([3]; 30 seconds p.i.): 100%
- Percentage of the dose that remains in the blood space ([3]; 3 minutes p.i.): 100%
- Percentage of the dose that remains in the blood space ([3]; 10 minutes p.i.): 100%
